Measurements published in patent US9617244B2, “Antibacterial quinoline derivatives” (JANSSEN PHARMACEUTICA NV, priority 2012, dated 2017).
Structures can show the parent of a compound that is named as a salt.

Row | SMILES | melting point [°C]
1 | COc1nc2ccc(SC)cc2cc1C(c1ccc(Cl)cc1)C1(O)CCNCC1Cc1cccc(F)c1 (stereo not drawn) (as salt: fumarate) [Compound 286] | 177
2 | COc1nc2ccc(Cl)cc2cc1C(c1ccc(Cl)cc1)C1(O)CCNCC1c1ccccc1 (stereo not drawn) (as salt: fumarate) [Compound 410] | 155
3 | COc1nc2ccc(S(C)(=O)=O)cc2cc1C(c1ccc(Cl)cc1)C1(O)CCNC(Cc2ccc(F)cc2F)C1 (stereo not drawn) (as salt: trifluoroacetate) [Compound 305] | 133
4 | COc1nc2ccccc2cc1C(c1ccccc1)C1(O)CCNC(c2ccccc2)C1 (stereo not drawn) (as salt: fumarate) [Compound 414] | 196
5 | COc1nc2ccc(Br)cc2cc1C(n1cccn1)[C@@]1(O)CCN[C@H](Cc2ccccc2)C1 (stereo in doubt) (as salt: fumarate) [Compound 67] | 245
6 | COc1nc2ccc(Br)cc2cc1C(c1ccc(Cl)cc1)C1(O)CCNC(Cc2ccc(F)c(F)c2)C1 (stereo not drawn) [Compound 111] | 111
7 | COc1nc2ccc(Br)cc2cc1C(c1ccccc1)C1(O)CCNC(Cc2ccccc2)C1 (stereo not drawn) [Compound 74] | 157
8 | COc1nc2ccc(Br)cc2cc1C(c1cccc(Cl)c1)C1(O)CCNC(Cc2ccccc2)C1 (stereo not drawn) (as salt: fumarate) [Compound 35] | 145
9 | COc1nc2ccc(Br)cc2cc1C(c1ccc(Cl)cc1)C1(O)CCNC(Cc2ccccc2)C1 (stereo not drawn) [Compound 78] | 130
10 | COc1nc2ccc(Br)cc2cc1C(c1cccc(Cl)c1)C1(O)CCNC(c2ccc(F)cc2C)C1 (stereo not drawn) (as salt: fumarate) [Compound 151] | 156
11 | COc1nc2ccc(Br)cc2cc1C(c1ccc(Cl)cc1)C1(O)CCNC(C)C1 (stereo not drawn) [Compound 123] | 210
12 | COc1nc2ccc(Cl)cc2cc1C(c1ccc(Cl)cc1)C1(O)CCNC(Cc2ccc(F)cc2)C1 (stereo not drawn) (as salt: fumarate) [Compound 348] | 145
13 | COc1nc2ccc(Br)cc2cc1C(c1ccc(Cl)cc1)C1(O)CCN(Cc2ccccc2)C(Cc2ccccc2)C1 (stereo not drawn) (as salt: fumarate) [Compound 76] | 148
14 | O=c1[nH]c2ccc(Cl)cc2cc1C(c1ccc(Cl)cc1)C1(O)CCNCC1F (stereo not drawn) (as salt: hydrochloride) [Compound 457] | > 250
15 | COc1nc2ccc(Cl)cc2cc1C(c1ccc(Cl)cc1)C1(O)CCNCC1c1ccccc1 (stereo not drawn) (as salt: fumarate) [Compound 411] | 168
16 | CS(=O)(=O)c1ccc2[nH]c(=O)c(C(c3cccc(Cl)c3)C3(O)CCNC(Cc4ccc(F)cc4F)C3)cc2c1 (stereo not drawn) (as salt: hydrochloride) [Compound 327] | 248
17 | COc1nc2ccc(Br)cc2cc1C(c1ccc(Cl)cc1)C1(O)CCNC(Cc2ccccc2)C1 (stereo not drawn) (as salt: fumarate) [Compound 77] | 155

Row | SMILES | melting point [°C]
18 | COc1nc2ccc(Cl)cc2cc1C(c1ccc(Cl)cc1)C1(O)CCNC(Cc2ccc(F)cc2)C1 (stereo not drawn) (as salt: fumarate) [Compound 347] | 148 to 150
19 | COc1nc2ccccc2cc1C(c1ccccc1)C1(O)CCNC(Cc2ccccc2)C1 (stereo not drawn) (as salt: fumarate) [Compound 401] | 240
20 | COc1nc2ccccc2cc1C(c1ccccc1)C1(O)CCNC(c2ccccc2)C1 (stereo not drawn) (as salt: fumarate) [Compound 413] | > 250
21 | CCCN(C)CC1CC(O)(C(c2ccc(Cl)cc2)c2cc3cc(Cl)ccc3nc2OC)CCN1 (stereo not drawn) (as salt: fumarate) [Compound 64] | 141
22 | COc1nc2ccc(Br)cc2cc1C(c1ccc(Cl)cc1)C1(O)CCNC(Cc2ccc(F)cc2F)C1 (stereo not drawn) (as salt: trifluoroacetate) [Compound 51] | 176
23 | COc1nc2ccc(Cl)cc2cc1C(c1ccc(Cl)cc1)C1(O)CCNC(c2ccccc2)C1 (stereo not drawn) (as salt: fumarate) [Compound 403] | 176
24 | O=c1[nH]c2ccc(Br)cc2cc1C(c1ccc(Cl)cc1)C1(O)CCNCC1Cc1cccc(F)c1 (stereo not drawn) (as salt: hydrochloride) [Compound 229] | > 250
25 | COc1nc2ccc(SC)cc2cc1C(c1ccc(Cl)cc1)C1(O)CCNC(Cc2ccccc2)C1 (stereo not drawn) (as salt: fumarate) [Compound 90] | 140
26 | COc1nc2ccc(F)cc2cc1C(c1ccc(S(C)(=O)=O)cc1)C1(O)CCNC(c2ccc(F)cc2C)C1 (stereo not drawn) (as salt: fumarate) [Compound 418] | 164 to 166
27 | COc1ccc2nc(OC)c(C(c3ccccc3)C3(O)CCNC(Cc4ccccc4)C3)cc2c1 (stereo not drawn) (as salt: fumarate) [Compound 408] | 135
28 | COc1nc2ccc(Br)cc2cc1C(c1cccc(Cl)c1)C1(O)CCNC(c2ccc(F)cc2C)C1 (stereo not drawn) (as salt: fumarate) [Compound 149] | 178
29 | COc1nc2ccc(Br)cc2cc1C(c1ccc(Cl)cc1)C1(O)CCNC(Cc2ccc(F)cc2F)C1 (stereo not drawn) (as salt: trifluoroacetate) [Compound 313] | 147
30 | COc1nc2ccc(Br)cc2cc1C(c1ccc(Cl)cc1)C1(O)CCNC(Cc2ccc(F)c(F)c2)C1 (stereo not drawn) (as salt: fumarate) [Compound 113] | 130
31 | COc1nc2ccc(Cl)cc2cc1C(c1ccc(Cl)cc1)C1(O)CCNC(Cc2ccc(F)cc2)C1 (stereo not drawn) (as salt: fumarate) [Compound 346] | 151 to 153
32 | COc1nc2ccc(SC)cc2cc1C(c1ccc(Cl)cc1)C1(O)CCNCC1Cc1cccc(F)c1 (stereo not drawn) (as salt: fumarate) [Compound 284] | 163
33 | CSc1nc2ccc(Br)cc2cc1C(c1ccc(Cl)cc1)C1(O)CCNC(Cc2ccccc2)C1 (stereo not drawn) (as salt: fumarate) [Compound 88] | 194
34 | COc1nc2ccc(Br)cc2cc1C(c1cccnc1)C1(O)CCNC(Cc2ccccc2)C1 (stereo not drawn) (as salt: fumarate) [Compound 428] | 217

Further lines, results first:

Row | melting point [°C] | SMILES
35 | 244 | CC1CC(O)(C(c2ccc(Cl)cc2)c2cc3cc(Br)ccc3[nH]c2=O)CCN1 (stereo not drawn) (as salt: hydrochloride) [Compound 132]
36 | 242 | O=c1[nH]c2ccc(Br)cc2cc1C(c1ccc(Cl)cc1)C1(O)CCNC(Cc2ccc(F)cc2)C1 (stereo not drawn) (as salt: hydrochloride) [Compound 365]
37 | > 260 | O=c1[nH]c2ccc(Br)cc2cc1C(c1ccc(Cl)cc1)C1(O)CCNC(Cc2ccc(F)c(F)c2)C1 (stereo not drawn) (as salt: hydrochloride) [Compound 126]
38 | > 250 | Cc1cc(F)ccc1C1CC(O)(C(c2ccc(Cl)cc2)c2cc3cc(S(C)(=O)=O)ccc3[nH]c2=O)CCN1 (stereo not drawn) (as salt: hydrochloride) [Compound 220]
39 | > 250 | Cc1cc(F)ccc1C1CC(O)(C(c2ccccc2)c2cc3cc(-c4cccnc4)ccc3[nH]c2=O)CCN1 (stereo not drawn) (as salt: hydrochloride) [Compound 236]
40 | > 250 | Cc1cc(F)ccc1C1CC(O)(C(c2ccc(Cl)cc2)c2cc3cc(Cl)ccc3[nH]c2=O)CCN1 (stereo not drawn) (as salt: hydrochloride) [Compound 303]
41 | 213 | CS(=O)(=O)c1ccc2[nH]c(=O)c(C(c3ccc(Cl)cc3)C3(O)CCNC(Cc4ccc(F)c(F)c4)C3)cc2c1 (stereo not drawn) (as salt: fumarate) [Compound 214]
42 | 240 | CC1CC(O)(C(c2ccc(Cl)cc2)c2cc3cc(Br)ccc3[nH]c2=O)CCN1 (stereo not drawn) (as salt: hydrochloride) [Compound 129]
43 | 224 | O=c1[nH]c2ccc(Br)cc2cc1C(c1ccc(Cl)cc1)C1(O)CCNC(Cc2ccc(F)c(F)c2)C1 (stereo not drawn) (as salt: hydrochloride) [Compound 40]
44 | 144 | COc1nc2ccc(Cl)cc2cc1C(c1ccc(S(C)(=O)=O)cc1)C1(O)CCNC(c2ccc(F)cc2C)C1 (stereo not drawn) (as salt: fumarate) [Compound 368]
45 | > 260 | O=c1[nH]c2ccc(Br)cc2cc1[C@@H](c1ccc(Cl)cc1)[C@]1(O)CCNC(Cc2ccccc2)C1 (stereo partly drawn) (as salt: hydrochloride) [Compound 121]
46 | 200 | CC1CC(O)(C(c2ccc(Cl)cc2)c2cc3cc(Br)ccc3[nH]c2=O)CCN1 (stereo not drawn) (as salt: hydrochloride) [Compound 130]
47 | 233 | O=c1[nH]c2ccc(Br)cc2cc1C(c1ccc(Cl)cc1)C1(O)CCNC(Cc2ccc(F)c(F)c2)C1 (stereo not drawn) (as salt: hydrochloride) [Compound 134]
48 | > 250 | Cc1cc(F)ccc1C1CC(O)(C(c2ccc(Cl)cc2)c2cc3cc(Br)ccc3[nH]c2=O)CCN1 (stereo not drawn) (as salt: hydrochloride) [Compound 106]
49 | 166 | COc1nc2ccc(F)cc2cc1C(c1ccc(Cl)cc1)C1(O)CCNC(c2ccc(F)cc2C)C1 (stereo not drawn) (as salt: fumarate) [Compound 331]
50 | 232 | CSc1ccc2[nH]c(=O)c(C(c3ccc(Cl)cc3)C3(O)CCNC(Cc4ccc(F)cc4)C3)cc2c1 (stereo not drawn) (as salt: hydrochloride) [Compound 334]
51 | 245 | CS(=O)(=O)c1ccc2[nH]c(=O)c(C(c3ccc(Cl)cc3)C3(O)CCN[C@@H](Cc4ccc(F)c(F)c4)C3)cc2c1 (stereo in doubt) (as salt: hydrochloride) [Compound 206]
52 | > 250 | CS(=O)(=O)c1ccc2[nH]c(=O)c(C(c3ccc(Cl)cc3)C3(O)CCN[C@@H](Cc4ccc(F)c(F)c4)C3)cc2c1 (stereo in doubt) (as salt: hydrochloride) [Compound 205]
53 | > 250 | Cc1cc(F)ccc1C1CC(O)(C(c2ccccc2)c2cc3cc(S(C)(=O)=O)ccc3[nH]c2=O)CCN1 (stereo not drawn) (as salt: hydrochloride) [Compound 237]
54 | > 260 | O=c1[nH]c2ccc(Br)cc2cc1C(c1ccc(Cl)cc1)C1(O)CCNC(Cc2ccc(F)cc2F)C1 (stereo not drawn) (as salt: hydrochloride) [Compound 315]
55 | 176 | COc1nc2ccc(SC)cc2cc1C(c1ccccc1)C1(O)CCNC(c2ccc(F)cc2C)C1 (stereo not drawn) (as salt: fumarate) [Compound 170]
56 | > 250 | CSc1ccc2[nH]c(=O)c(C(c3ccc(Cl)cc3)C3(O)CCNC(c4ccc(F)cc4C)C3)cc2c1 (stereo not drawn) (as salt: hydrochloride) [Compound 266]
57 | > 260 | O=c1[nH]c2ccc(Br)cc2cc1C(c1ccc(Cl)cc1)C1(O)CCNC(Cc2ccc(F)cc2)C1 (stereo not drawn) (as salt: hydrochloride) [Compound 341]
